Source: ChEMBL document CHEMBL1944578, “Synthesis and anticonvulsant activity of novel 2,6-diketopiperazine derivatives. Part 2: Perhydropyrido[1,2-a]pyrazines” (Eur J Med Chem, 2012)
Activity calls are given as the source filed them. No cut-off for these calls is given here.

How the values were obtained:
[1] = system: Mus musculus; assay: Anticonvulsant activity in Carworth farms No.1 albino mouse assessed as protection against maximum electroshock at 300 mg/kg, ip measured after 0.5 hrs; format: functional, organism-based; set-up: dose 300 mg/kg
[2] = system: Mus musculus; assay: Anticonvulsant activity in Carworth farms No.1 albino mouse assessed as protection against subcutaneous metrazole-induced seizures at 30 mg/kg, ip measured after 4 hrs; format: functional, organism-based; set-up: dose 30 mg/kg
[3] = system: Mus musculus; assay: Anticonvulsant activity in Carworth farms No.1 albino mouse assessed as protection against subcutaneous metrazole-induced seizures at 300 mg/kg, ip measured after 0.5 hrs; format: functional, organism-based; set-up: dose 300 mg/kg
[4] = system: Mus musculus; assay: Anticonvulsant activity in Carworth farms No.1 albino mouse assessed as protection against subcutaneous metrazole-induced seizures at 100 mg/kg, ip measured after 0.5 hrs; format: functional, organism-based; set-up: dose 100 mg/kg
[5] = system: Mus musculus; assay: Anticonvulsant activity in Carworth farms No.1 albino mouse assessed as protection against maximum electroshock at 300 mg/kg, ip measured after 4 hrs; format: functional, organism-based; set-up: dose 300 mg/kg
[6] = system: Mus musculus; assay: Anticonvulsant activity in Carworth farms No.1 albino mouse assessed as protection against 6 Hz electric current-induced seizure at 100 mg/kg, ip measured after 4 hrs; format: functional, organism-based; set-up: dose 100 mg/kg
[7] = system: Mus musculus; assay: Neurotoxicity in Carworth farms No.1 albino mouse assessed as neurological impairment at 300 mg/kg, ip measured after 4 hrs; format: toxicity, organism-based; set-up: dose 300 mg/kg, route intraperitoneal; conditions: in vivo
[8] = system: Mus musculus; assay: Neurotoxicity in Carworth farms No.1 albino mouse assessed as neurological impairment at 30 mg/kg, ip measured after 0.5 hrs; format: toxicity, organism-based; set-up: dose 30 mg/kg, route intraperitoneal; conditions: in vivo
[9] = system: Mus musculus; assay: Neurotoxicity in Carworth farms No.1 albino mouse assessed as neurological impairment at 100 mg/kg, ip measured after 4 hrs; format: toxicity, organism-based; set-up: dose 100 mg/kg, route intraperitoneal; conditions: in vivo
[10] = system: Mus musculus; assay: Anticonvulsant activity in Carworth farms No.1 albino mouse assessed as protection against maximum electroshock at 30 mg/kg, ip measured after 0.5 hrs; format: functional, organism-based; set-up: dose 30 mg/kg
[11] = system: Mus musculus; assay: Anticonvulsant activity in Carworth farms No.1 albino mouse assessed as protection against subcutaneous metrazole-induced seizures at 30 mg/kg, ip measured after 0.5 hrs; format: functional, organism-based; set-up: dose 30 mg/kg
[12] = system: Mus musculus; assay: Neurotoxicity in Carworth farms No.1 albino mouse assessed as neurological impairment at 30 mg/kg, ip measured after 4 hrs; format: toxicity, organism-based; set-up: dose 30 mg/kg, route intraperitoneal; conditions: in vivo
[13] = system: Mus musculus; assay: Neurotoxicity in Carworth farms No.1 albino mouse assessed as neurological impairment at 100 mg/kg, ip measured after 0.5 hrs; format: toxicity, organism-based; set-up: dose 100 mg/kg, route intraperitoneal; conditions: in vivo
[14] = system: Mus musculus; assay: Anticonvulsant activity in Carworth farms No.1 albino mouse assessed as protection against 6 Hz electric current-induced seizure at 100 mg/kg, ip measured after 2 hrs; format: functional, organism-based; set-up: dose 100 mg/kg
[15] = system: Mus musculus; assay: Anticonvulsant activity in Carworth farms No.1 albino mouse assessed as protection against 6 Hz electric current-induced seizure at 100 mg/kg, ip measured after 0.5 hrs; format: functional, organism-based; set-up: dose 100 mg/kg
[16] = system: Mus musculus; assay: Neurotoxicity in Carworth farms No.1 albino mouse assessed as neurological impairment at 100 mg/kg, ip measured after 0.25 hrs; format: toxicity, organism-based; set-up: dose 100 mg/kg, route intraperitoneal; conditions: in vivo
[17] = system: Mus musculus; assay: Neurotoxicity in Carworth farms No.1 albino mouse assessed as neurological impairment at 300 mg/kg, ip measured after 0.5 hrs; format: toxicity, organism-based; set-up: dose 300 mg/kg, route intraperitoneal; conditions: in vivo
[18] = system: Mus musculus; assay: Anticonvulsant activity in Carworth farms No.1 albino mouse assessed as protection against subcutaneous metrazole-induced seizures at 300 mg/kg, ip measured after 4 hrs; format: functional, organism-based; set-up: dose 300 mg/kg
[19] = system: Mus musculus; assay: Neurotoxicity in Carworth farms No.1 albino mouse assessed as neurological impairment at 100 mg/kg, ip measured after 2 hr; format: toxicity, organism-based; set-up: dose 100 mg/kg, route intraperitoneal; conditions: in vivo
[20] = system: Mus musculus; assay: Anticonvulsant activity in Carworth farms No.1 albino mouse assessed as protection against maximum electroshock at 100 mg/kg, ip measured after 0.5 hrs; format: functional, organism-based; set-up: dose 100 mg/kg
[21] = system: Mus musculus; assay: Anticonvulsant activity in Carworth farms No.1 albino mouse assessed as protection against 6 Hz electric current-induced seizure at 100 mg/kg, ip measured after 1 hrs; format: functional, organism-based; set-up: dose 100 mg/kg
[22] = system: Mus musculus; assay: Anticonvulsant activity in Carworth farms No.1 albino mouse assessed as protection against subcutaneous metrazole-induced seizures at 100 mg/kg, ip measured after 4 hrs; format: functional, organism-based; set-up: dose 100 mg/kg
[23] = system: Mus musculus; assay: Anticonvulsant activity in Carworth farms No.1 albino mouse assessed as protection against 6 Hz electric current-induced seizure at 100 mg/kg, ip measured after 0.25 hrs; format: functional, organism-based; set-up: dose 100 mg/kg
[24] = system: Mus musculus; assay: Neurotoxicity in Carworth farms No.1 albino mouse assessed as neurological impairment at 100 mg/kg, ip measured after 1 hr; format: toxicity, organism-based; set-up: dose 100 mg/kg, route intraperitoneal; conditions: in vivo
[25] = system: Mus musculus; assay: Anticonvulsant activity in Carworth farms No.1 albino mouse assessed as protection against maximum electroshock at 100 mg/kg, ip measured after 4 hrs; format: functional, organism-based; set-up: dose 100 mg/kg
[26] = system: Mus musculus; assay: Anticonvulsant activity in Carworth farms No.1 albino mouse assessed as protection against maximum electroshock at 30 mg/kg, ip measured after 4 hrs; format: functional, organism-based; set-up: dose 30 mg/kg
[27] = species: Mus musculus; assay: Anticonvulsant activity in electric shock-induced Carworth farms No.1 albino mouse assessed as time of peak effect; format: functional
[28] = system: Mus musculus; assay: Anticonvulsant activity in ip dosed Carworth farms No.1 albino mouse assessed as protection against 6 Hz electric current-induced seizure measured after 0.25 hrs; format: functional

| Structure (SMILES) | Activity [1] | Activity [2] | Activity [3] | Activity [4] | Activity [5] | Activity [7] | Activity [8] | Activity [9] | Activity [10] | Activity [11] | Activity [12] | Activity [13] | Activity [16] | Activity [17] | Activity [18] | Activity [19] | Activity [20] | Activity [22] | Activity [24] | Activity [25] | also measured |
| --- | --- | --- | --- | --- | --- | --- | --- | --- | --- | --- | --- | --- | --- | --- | --- | --- | --- | --- | --- | --- | --- |
| O=C1CN2CCCC[C@H]2C(=O)N1 | inactive | inactive | inactive | inactive | inactive | Non-toxic | Non-toxic | Non-toxic | inactive | inactive | Non-toxic | Non-toxic | Non-toxic | Non-toxic | inactive | Non-toxic | inactive | inactive | Non-toxic | inactive | Activity [6]: inactive; Activity [14]: inactive; Activity [15]: inactive; Activity [21]: Active; Activity [23]: Active; Activity [26]: inactive |
| O=C1[C@H]2CCCCN2[C@@H](c2ccccc2)C(=O)N1Cc1ccccc1 | inactive | inactive | inactive | inactive | inactive | Non-toxic | Non-toxic | Non-toxic | inactive | inactive | Non-toxic | Non-toxic | Non-toxic | Non-toxic | inactive | Non-toxic | inactive | inactive | Non-toxic | inactive | Activity [6]: inactive; Activity [14]: inactive; Activity [15]: inactive; Activity [21]: inactive; Activity [23]: inactive; Activity [26]: inactive |
| O=C1CN2CCCC[C@@H]2C(=O)N1 | inactive | inactive | inactive | inactive | inactive | Non-toxic | Non-toxic | Non-toxic | inactive | inactive | Non-toxic | Non-toxic | Non-toxic | Non-toxic | inactive | Non-toxic | inactive | inactive | Non-toxic | inactive | Activity [6]: inactive; Activity [14]: inactive; Activity [15]: Active; Activity [21]: Active; Activity [23]: inactive; Activity [26]: inactive |
| O=C1NC(=O)[C@@H](c2ccccc2)N2CCCC[C@@H]12 | inactive | inactive | inactive | inactive | inactive | Non-toxic | Non-toxic | Non-toxic | inactive | inactive | Non-toxic | Non-toxic | Non-toxic | Non-toxic | inactive | Non-toxic | inactive | inactive | Non-toxic | inactive | Activity [6]: inactive; Activity [14]: inactive; Activity [15]: inactive; Activity [21]: inactive; Activity [23]: inactive; Activity [26]: inactive |
| Cl.O=C1[C@H](c2ccccc2)N2CCCC[C@H]2C(=O)N1CCc1ccccc1 |  |  |  |  |  | Non-toxic | Non-toxic | Non-toxic |  |  | Non-toxic | Non-toxic | Non-toxic | Non-toxic |  | Non-toxic |  |  | Non-toxic |  |  |
| CC[C@@H](C(N)=O)N1CCCC1=O [LEVETIRACETAM] |  |  |  |  |  |  |  |  |  |  |  |  |  |  |  |  |  |  |  |  | Time [27]: 1 h |
| O=C1[C@H](c2ccccc2)N2CCCC[C@H]2C(=O)N1CCc1ccccc1 [listing 1 of 2 here] |  |  |  |  |  | Non-toxic | Non-toxic | Non-toxic |  |  | Non-toxic | Non-toxic |  | Non-toxic |  |  |  |  |  |  |  |
| O=C1[C@H]2CCCCN2[C@H](c2ccccc2)C(=O)N1CCc1ccccc1 [listing 1 of 2 here] | inactive | inactive | inactive | inactive | inactive |  |  |  | inactive | inactive |  |  |  |  | inactive |  | inactive | inactive |  | inactive | Activity [6]: inactive; Activity [26]: inactive |
| Cl.O=C1[C@H]2CCCCN2[C@H](c2ccccc2)C(=O)N1Cc1ccccc1 | Active | inactive | inactive | inactive | Active | Non-toxic | Non-toxic | Non-toxic | inactive | inactive | Non-toxic | Non-toxic |  | Toxic | inactive |  | inactive | inactive |  | inactive | Activity [26]: inactive |
| Cl.O=C1[C@H]2CCCCN2[C@H](c2ccccc2)C(=O)N1CCc1ccccc1 |  |  |  |  |  | Non-toxic | Non-toxic | Non-toxic |  |  | Non-toxic | Non-toxic | Non-toxic | Non-toxic |  | Non-toxic |  |  | Non-toxic |  | Time [27]: 0.25 h; ED50 [28]: 78.5 mg/kg |
| O=C1[C@H]2CCCCN2[C@H](c2ccccc2)C(=O)N1CCc1ccccc1 [listing 2 of 2 here] |  |  |  |  |  | Non-toxic | Non-toxic | Non-toxic |  |  | Non-toxic | Non-toxic | Non-toxic | Non-toxic |  | Non-toxic |  |  | Non-toxic |  |  |
| O=C1[C@H](c2ccccc2)N2CCCC[C@H]2C(=O)N1CCc1ccccc1 [listing 2 of 2 here] | inactive | inactive | inactive | inactive | inactive |  |  |  | inactive | inactive |  |  |  |  | inactive |  | inactive | inactive |  | inactive | Activity [6]: inactive; Activity [14]: inactive; Activity [15]: Active; Activity [21]: inactive; Activity [23]: Active; Activity [26]: inactive |
